Results from EP4810009A1, “MELANOGENESIS INHIBITOR AND EXTERNAL PREPARATION FOR SKIN CONTAINING SAME” (MITSUBISHI GAS CHEMICAL COMPANY, INC., priority 2023, dated 2025).

How the values were obtained:
pig skin = test: Chemical peeling ability; settings: aqueous solution of 7% by weight of organic acid on pig skin for 24 hours; decrease of stratum corneum thickness
Method: An aqueous solution of 7% by weight of organic acid was allowed to act on to pig skin for 24 hours. If the thickness of the stratum corneum decreased by 10% or more, it was evaluated as A; if it decreased by less than 10%, it was evaluated as B.

[1] = system: Cutibacterium acnes NBRC 107605; test: Ability to eliminate acne bacteria; assay type: cell-based; settings: 0.05 mL of aqueous solution of 7% by weight of organic acid added to 5 mL test solution; viable cell count after 60 seconds
Method: 0.05 mL of an aqueous solution of 7% by weight of organic acid was added dropwise to 5 mL of a test solution containing the bacterial strain Cutibacterium acnes NBRC 107605 at a concentration of 10^8 CFU/mL. After 60 seconds, if the viable cell count was less than 1%, it was evaluated as A; if the viable cell count was 1% or more, it was evaluated as B. [Table 10]

[2] = Solubility in oils (saturated solubility of oleic acid in organic acid solution); assay type: physicochemical; settings: oleic acid in aqueous solution of 50% by weight of organic acid; room temperature (23°C), 24 hours
Method: Oleic acid was added into an aqueous solution of 50% by weight of organic acid, and the mixed solution was then stirred at room temperature (23°C) for 24 hours.

[3] = Solubility in oils and fats (saturated solubility of palmitic acid in organic acid solution); assay type: physicochemical; settings: palmitic acid in aqueous solution of 50% by weight of organic acid; room temperature (23°C), 24 hours
Method: Palmitic acid was added into an aqueous solution of 50% by weight of organic acid, and the mixed solution was then stirred at room temperature (23°C) for 24 hours.

B16 melanoma [4] = test: Evaluation of melanin production inhibitory activity; assay type: cell-based, mouse; settings: 100 µM methyl lactic acid, pH 6.5 with NaOH; one day of culture; compared with kojic acid 1 mM positive control; Figure 1
Method: As melanin-producing cells, mouse-derived skin melanoma cells, B16 melanoma (JCRB0202, purchased from JCRB Cell Bank) were used. As a medium for cell culture, 500 mL of E-MEM medium was mixed with 5 mL of x 100 penicillin-streptomycin solution and 100 mL of inactivated fetal bovine serum (manufactured by West Bio), and the resulting medium was used. For the subculture of cells, the cells were washed with a phosphate buffer (manufactured by GIBCO), and were detached from the vessel with 0.25% trypsin and EDTA (ethylenediaminetetraacetic acid), followed by addition of a medium, and the obtained mixture was centrifugated to separate the cels. To ensure stable cell culture, the cell concentration was adjusted to 5 to 16 x 10^4 cells/mL, and the cells were then cultured in a 10-cm petri dish or a plastic culture flask (175 cm^2) in the presence of 5% carbon dioxide at 37°C. […] The absorbance at 450 nm was measured using a plate reader, and the melanin concentration was calculated. […] The melanin production percentage (%) shown in Figure 1 is a relative value (%) in a case where the melanin concentration in the negative control is taken as 100%, and for each case, it is an average value of the values measured for 12 samples.

B16 melanoma [5] = test: Cytotoxicity test (Cell counting Kit 8); assay type: cell-based, mouse; settings: 100 µM methyl lactic acid, one day of culture, Figure 2
Method: Cell culture was performed by the same method as that in Example 1 mentioned above.
The test sample was prepared by the same method as that in Example 1 mentioned above.
Cells were detached from the culture obtained under the cell culture conditions described in Example 1, and 0.1 mL of cells and medium were each seeded into a 96-well vessel to a cell concentration of 5 x 10^4 cells/mL. After one day of culture, the medium was removed and replaced with the test sample. After one further day of culture, the vessel was washed with an assay medium, and 0.1 mL each of a 1 : 9 mixed solution of Cell counting Kit 8 and medium was added. After the mixture had been left at rest at 37°C for 30 minutes in the presence of 5% carbon dioxide, the absorbance at 450 nm was measured using a plate reader, and the cell count was calculated.
The cell count (%) is a relative value (%) in a case where the cell count in the negative control (medium alone) is taken as 100%, and for each case, it is an average value of the values measured for 16 samples.

tyrosinase = test: Tyrosinase biosynthesis inhibitory action test (DOPA-melanin per unit protein in cell lysate); assay type: cell-based; settings: normal human melanocytes; 2.5, 5, 10, 20, and 40 mM; one day of culture; Figure 3
Method: (§1) Normal human melanocytes (manufactured by Kurabo Industries, Ltd.) were used as melanin-producing cells. As a medium for the cells, Dermalife (manufactured by Kurabo Industries, Ltd.) was used. The cell concentration was adjusted to 3 x 10^4 cells/mL, and the cells were cultured in a 96-well plate in the presence of 5% carbon dioxide at 37°C for 24 hours.
(§2) As a test sample, NaOH was added to methyl lactic acid to adjust the pH to 6.5, and was used. […]. As a control, Dermalife, into which methyl lactic acid was not added, was used.
The medium was removed from the culture obtained under the aforementioned cell culture conditions and replaced with the test sample. After one day of culture, the medium was removed, and a phosphate buffer containing 0.5% Triton X-100 was added in an amount of 50 µL/well. The cells were lysed by agitation. 50 µL of the cell lysate was mixed with 50 µL of phosphate buffer containing 2 mM DOPA, and the obtained mixture was then incubated at 37°C for 2 hours. The absorbance (measurement wavelength: 405 nm, reference wavelength: 650 nm) was measured, and the amount of DOPA-melanin was calculated from a calibration curve. The amount of the protein was quantified using a BCA protein assay kit (Thermo), and the amount of DOPA-melanin per unit protein was then calculated to confirm tyrosinase biosynthesis inhibitory action. […]

tyrosinase protein = test: Tyrosinase protein expression inhibition test (Western blot); assay type: cell-based; settings: normal human melanocytes; 20 mM; 48 hours; Figure 4
Method: as §1, with “Industries” for “Industries,”, “Dermalife” for “Dermalife (manufactured by Kurabo Industries, Ltd.)”, “10^5 cells/1.5 mL,” for “10^4 cells/mL,”, “6-well” for “96-well”
as §2
The medium was replaced with the test sample (1.5 mL/well) and cultured for 48 hours. After removing the medium, proteins were extracted using M-PER™ Mammalian Protein Extraction Reagent (manufactured by Themo), and were then developed by SDS-PAGE. After the resultant had been transferred onto a polyvinylidene difluoride (PVDF) membrane, the membrane was blocked with 5% skim milk. After a reaction had been performed with an anti-tyrosinase antibody (manufactured by Santa Cruz Biotechnology) for 1 hour, the membrane was further reacted with an HRP-conjugated secondary antibody (manufactured by abcam) for an additional 1 hour. Protein bands were detected using Ez West Blue W (manufactured by ATTO). The signal intensity of the resulting bands was detected using the image processing software ImageJ, and the relative protein expression levels were calculated. […]

tyrosinase mRNA = test: Evaluation of suppression of melanin synthesis-related factor mRNA expression (Real-time PCR); assay type: cell-based; settings: normal human melanocytes; 10 and 20 mM; 24 hours; Figure 5
Method: Normal human melanocytes (manufactured by Kurabo Industries, Ltd.) were used as melanin-producing cells. As a medium for the cells, […] was used. The cell concentration was adjusted to 3 x 10^4 cells/mL, and the cells were cultured in a 96-well plate in the presence of 5% carbon dioxide at 37°C for 24 hours. As a test sample, NaOH was added to methyl lactic acid to adjust the pH to 6.5, and was used. […] As a control, […], into which methyl lactic acid was not added, was used. The medium was replaced with the test sample (100 μL/well) and cultured for 24 hours. After removing the medium, RNA was extracted using Cells-to-Ct kit (manufactured by Themo), and was then subjected to reverse transcription to synthesize cDNA. Using the resulting cDNA, Real-time PCR was carried out, and the relative expression level of mRNA was calculated. In Figure 5, "Control" is a negative control, which uses a medium without the test sample.

Structure (SMILES) | Chemical peeling ability (pig skin) | Ability to eliminate acne bacteria [1] | Solubility in oils [2] | Solubility in oils and fats [3] | melanogenesis-inhibiting effect (melanin production percentage) (B16 melanoma [4]) | cytotoxicity (cell count) (B16 melanoma [5]) | tyrosinase biosynthesis inhibitory action (DOPA-melanin per unit protein) (tyrosinase) | tyrosinase protein expression inhibitory action (relative expression level of tyrosinase protein) (tyrosinase protein) | tyrosinase mRNA expression-suppressing action (relative expression level of tyrosinase mRNA) (tyrosinase mRNA)
O=C(O)CO [Glvcolic acid] | A (If the thickness of the stratum corneum decreased by 10% or more, it was evaluated as A) | A (if the viable cell count was less than 1%, it was evaluated as A) |  |  |  |  |  |  | 
O=c1cc(CO)occ1O [Kojic acid, reference compound] | B (if it decreased by less than 10%, it was evaluated as B) | B (if the viable cell count was 1% or more, it was evaluated as B) | B (if it was less than 200 ppm, it was evaluated as B) | B (if it was less than 20 ppm, it was evaluated as B) |  |  |  |  | 
CC(O)C(=O)O (centres unmarked) [Lactic acid] | A (If the thickness of the stratum corneum decreased by 10% or more, it was evaluated as A) | A (if the viable cell count was less than 1%, it was evaluated as A) |  |  |  |  |  |  | 
CC(C)(O)C(=O)O [Methyl lactic acid, 2-hydroxyisobutyric acid] | A (If the thickness of the stratum corneum decreased by 10% or more, it was evaluated as A) | A (if the viable cell count was less than 1%, it was evaluated as A) | A (if the saturated solubility of oleic acid was 200 ppm or more, it was evaluated as A) | A (if the saturated solubility of palmitic acid was 20 ppm or more, it was evaluated as A) | the same melanogenesis-inhibiting effect as the addition of kojic acid | cytotoxicity was not confirmed | a tyrosinase biosynthesis inhibitory action was exhibited in a dose-dependent manner | a tyrosinase protein expression inhibitory action was exhibited | exhibited a tyrosinase mRNA expression-suppressing action
